Experimental data as given in article PMC10564737, “Structure-based design of a phosphotyrosine-masked covalent ligand targeting the E3 ligase SOCS2” (Nature Communications, 2023).
“And” between values parts separate entries of the source, which are not always exact repeats. Identical values can stand only once. Like-named read-outs stand apart in the source and are kept apart here.

Molecular target: T1, SBC2 (Homo sapiens, UniProt O14508)
T1 construct: SOCS2 (amino acids 32–198); His6 (N, cleaved yes); made in house; host or cells: E. coli BL21(DE3)
Assay: Covalent fluorescence polarization (FP) probe displacement assay
Assay type: binding
Design: Michaelis-Menten best-fit value Vmax / Michaelis-Menten best-fit Vmax: unit not given here
Details: for Anisotropy: Cycle 12 (55 min)
Excerpt: With the specific covalent modification of Cys111 established, we decided to fully characterize MN551 as a covalent SOCS2 inhibitor. […] (Fig. 2g, h, Supplementary Fig. 9). Due to the covalent nature of the competing inhibitor, a time-dependent reduction in the fraction of protein-bound probe is observed. […] This value illustrates reasonable specificity for a covalent inhibitor, with nonetheless scope for future optimization. In addition to characterizing the kinetic covalency parameters, we have also assessed the stability of the MN551 by monitoring its reactivity (half-life >70 min) with reduced glutathione (GSH) (Supplementary Fig. 10)[35].
To monitor the SBC2-ligand binding kinetics we designed a fluorescein-labeled small-molecule probe - compound 26. The fluorescence polarization (anisotropy) of a threefold serial dilution of 50 µM SBC2 in 10 nM of the probe in 100 mM HEPES pH 7.5, 50 mM NaCl, 0.5 mM TCEP, 2% DMSO was measured to determine the KL (Supplementary Fig. 9A) (BMG Labtech PHERAstar – firmware v1.33). Protein titration and the curves were fitted using GraphPad Prism 9, using one-site fitting models to determine the probe binding constant, KL. Samples were run in triplicate in 384 well plates, using a total volume per well of 16 μL. The bound fraction of the probe is measure using the equation:1 Fb=Af−A/Af−Ab Where,
A time-dependent reduction in probe anisotropy were measured for a 2-fold serial dilution of […] compound MN551 in 10 nM probe +300 μM SBC2. To determine the initial reversible binding affinity, the initial bound fraction of the probe at time = 0, Fbo (the y-intercept in Fb v/s Time plot, Supplementary Fig. 9B) was plotted against MN551 concentration, and the obtained IC50 is then converted to Ki (Supplementary Fig. 9C)[17]. The slope from Fb versus time graph when divided by Fbo gives rate of covalency, kobs. A plot of kobs v/s MN551 concentration using Michaelis–Menten model of GraphPad Prism 9, provides the parameters kinact (maximum potential rate of inactivation) and KI (concentration of MN551 at which kobs = kinact/2) (Supplementary Fig. 9D, E).
The observed first-order rate constant, kobs is related to KI and kinact by the equation:2 kobs=kinactI/KI+I
At [I]«[KI] the above equation is converted to3 […]
The slope from the plot of kobs against concentration of MN551 gives us the covalent efficiency parameter kinact/KI (Supp Fig. 9F)[30],[33].

[1] = MN551 1562.5 nM, Cycle 6 (25 min)
[2] = MN551 3125 nM, Cycle 6 (25 min)
[3] = MN551 6250 nM, Cycle 6 (25 min)
[4] = MN551 12500 nM, Cycle 6 (25 min)
[5] = MN551 25000 nM, Cycle 6 (25 min)
[6] = MN551 50000 nM, Cycle 6 (25 min)
[7] = linear fit through origin, 14 X values

T1 sequence (O14508 32-198): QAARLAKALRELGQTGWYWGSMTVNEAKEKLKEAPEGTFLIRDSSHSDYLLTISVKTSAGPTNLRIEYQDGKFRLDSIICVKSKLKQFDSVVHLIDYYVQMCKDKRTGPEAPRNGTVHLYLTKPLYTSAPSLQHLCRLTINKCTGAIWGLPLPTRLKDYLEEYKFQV
T1 sequence (Q15370 1-104 partner limits assumed): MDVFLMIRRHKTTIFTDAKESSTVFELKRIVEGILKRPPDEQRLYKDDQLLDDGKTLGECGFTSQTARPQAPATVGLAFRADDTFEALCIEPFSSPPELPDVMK
T1 sequence (Q15369 17-112 partner limits assumed): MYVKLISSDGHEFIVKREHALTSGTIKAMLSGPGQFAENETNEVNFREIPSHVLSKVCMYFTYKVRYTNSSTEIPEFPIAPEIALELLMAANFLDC

## O=C(CCl)Nc1cccc(CNC(=O)[C@H](Cc2ccc(OP(=O)(O)O)cc2)NC(=O)Cc2ccc(F)cc2)c1 [MN551]
MN551 1562.5 nM, Cycle 7 (30 min)
  Anisotropy based on Raw Data (485): 249.9 and 251.8 and 246.3
MN551 1562.5 nM, Cycle 2 (5 min)
  Fb, fraction bound: 0.7824 and 0.8178 and 0.7856
MN551 1562.5 nM, Cycle 3 (10 min)
  Fb, fraction bound: 0.7647 and 0.786 and 0.7702
[1]
  Anisotropy data 485,520,520: 247 and 253 and 251
  Fb: 0.6849 and 0.7296 and 0.7125
MN551 1562.5 nM
  Anisotropy: 232.7 and 235.9 and 233.9
MN551 3125 nM, Cycle 7 (30 min)
  Anisotropy based on Raw Data (485): 236.7 and 234.8 and 231.2
MN551 3125 nM, Cycle 3 (10 min)
  Fb, fraction bound: 0.6544 and 0.6694 and 0.6412
[2]
  Anisotropy data 485,520,520: 232.2 and 235.2 and 237.3
  Fb: 0.5431 and 0.5648 and 0.5878
MN551 3125 nM
  Anisotropy: 219.6 and 215.4 and 213.4
MN551 6250 nM, Cycle 7 (30 min)
  Anisotropy based on Raw Data (485): 210.9 and 211.2 and 208.6
MN551 6250 nM, Cycle 3 (10 min)
  Fb, fraction bound: 0.4366 and 0.4454 and 0.4414
[3]
  Anisotropy data 485,520,520: 214.2 and 214.4 and 216.1
  Fb: 0.3707 and 0.3722 and 0.3949
MN551 6250 nM
  Anisotropy: 197.5 and 192.2 and 194.7
MN551 6250 nM, Cycle 19 (90 min), n=1
  Anisotropy data 485,520,520: 182.4 and 180.6 and 182.5
MN551 12500 nM, Cycle 7 (30 min)
  Anisotropy based on Raw Data (485): 198.9 and 196.3 and 194.4
MN551 12500 nM, Cycle 3 (10 min)
  Fb, fraction bound: 0.2711 and 0.337 and 0.3633
[4]
  Anisotropy data 485,520,520: 197.3 and 198 and 197.2
  Fb: 0.2088 and 0.2204 and 0.2229
MN551 12500 nM
  Anisotropy: 181.6 and 186.4 and 190.6
MN551 12500 nM, Cycle 19 (90 min), n=1
  Anisotropy data 485,520,520: 175.8 and 177.4 and 179.3
MN551 25000 nM, Cycle 7 (30 min)
  Anisotropy based on Raw Data (485): 184.9 and 182.9 and 181.5
MN551 25000 nM, Cycle 8 (35 min)
  Anisotropy based on Raw Data (485): 180.7 and 181.6
MN551 25000 nM, Cycle 3 (10 min)
  Fb, fraction bound: 0.1627 and 0.184 and 0.1553
[5]
  Anisotropy data 485,520,520: 189.8 and 187 and 188.6
  Fb: 0.137 and 0.1185 and 0.1447
MN551 25000 nM
  Anisotropy: 177.2 and 177.1 and 175
MN551 25000 nM, Cycle 19 (90 min), n=1
  Anisotropy data 485,520,520: 168.3 and 171.4 and 169.1
MN551 50000 nM, Cycle 7 (30 min)
  Anisotropy based on Raw Data (485): 181.6 and 178.4 and 180.2
MN551 50000 nM, Cycle 8 (35 min)
  Anisotropy based on Raw Data (485): 179.2 and 176.8 and 178.5
MN551 50000 nM, Cycle 3 (10 min)
  Fb, fraction bound: 0.08456 and 0.09836 and 0.08356
[6]
  Anisotropy data 485,520,520: 185.8 and 181.1 and 183.7
  Fb: 0.09866 and 0.06389 and 0.1001
MN551 50000 nM
  Anisotropy: 173.6 and 173.5 and 174.7
MN551 50000 nM, Cycle 19 (90 min), n=1
  Anisotropy data 485,520,520: 167.6 and 168.6 and 168.7
MN551 100000 nM, Cycle 7 (30 min)
  Anisotropy based on Raw Data (485): 179.4 and 180.3 and 179.5
MN551 100000 nM, Cycle 8 (35 min)
  Anisotropy based on Raw Data (485): 176.4 and 175.9
MN551 100000 nM, Cycle 3 (10 min)
  Fb, fraction bound: 0.06066 and 0.07013 and 0.06449
MN551 100000 nM, Cycle 6 (25 min)
  Anisotropy data 485,520,520: 179.9 and 183.4
MN551 100000 nM
  Anisotropy: 176.4 and 173.8 and 174.3
MN551 100000 nM, Cycle 19 (90 min), n=1
  Anisotropy data 485,520,520: 171.6 and 169.1
Mean, n = 3, time = 0, read-out: Ki
  Ki: 1110 nM
Calculated from IC50 at time = 0, read-out: Ki at time = 0 (initial reversible binding affinity)
  Ki: 1100 nM
Experiment n=1, 95% CI 0.01343 to 0.01564
  Michaelis-Menten best-fit value Vmax: 0.0145
Experiment n=1, Y = 3.349e-006*X + 0.000, 95% CI 3.026e-006 to 3.671e-006
  Linear fit best-fit value Slope: 3.349e-6
[7]
  Slope of linear regression (Equation Y = slope*X + 0.000), covalent efficiency: Y = 3.866e-006*X + 0.000
  Slope, 95% Confidence Intervals: 3.764e-006 to 3.969e-006
Mean ± SEM, n = 3
  kinact (maximum potential rate of inactivation): 2.1 × 10^–4 s^-1
Mean ± SEM, n = 3, read-out: kinact (maximum potential rate of inactivation)
  kinact: 0.0125 min⁻¹
mean, n = 3
  kinact/KI (covalent efficiency): 57.53 M⁻¹ s⁻¹
mean, n = 3, read-out: Ki
  Ki: 3560.67 nM
mean, n = 3, read-out: Kinact (converted)
  kinact: 0.0153 min⁻¹
mean, n = 3, read-out: kinact/KI (covalent efficiency)
  kinact/KI: 3480 M⁻¹ min⁻¹
n=2 experiment
  Michaelis-Menten Vmax, 95% CI (profile likelihood): 0.01305 to 0.01515
n=2 experiment, R squared 0.9902
  Michaelis-Menten best-fit value Vmax: 0.01406
n=2 experiment, from Michaelis-Menten fit (Vmax), read-out: Kinact (min-1) (converted)
  kinact: 0.0141 min⁻¹
n=2 experiment, from Michaelis-Menten fit (Vmax), read-out: Kinact (s-1)
  kinact: 0.014 min⁻¹
read-out: Slope: Kinact/Ki (M-1min-1), FP competition assay to evaluate MN551 covalent efficiency, replicate n=3, Michaelis-Menten fit
  kinact/KI: 3690 M⁻¹ min⁻¹
Replicate n=3, 95% CI 0.01570 to 0.01942
  Michaelis-Menten best-fit Vmax: 0.01742
Replicate n=3, Y-intercept 0
  Linear fit 1/slope: 258642
Replicate n=3, Y-intercept 0, MN551 below Ki titration
  Linear fit best-fit Slope: 3.866e-6
Single replicates
  Kinact, individual replicates n1-n3: 0.014 min⁻¹
  Kinact/KI, individual replicates n1-n3: 52.40 M⁻¹ s⁻¹
Single replicates, read-out: Kinact, individual replicates n1-n3 (converted)
  kinact: 0.0174 min⁻¹
Single replicates, read-out: Kinact/KI, individual replicates n1-n3
  kinact/KI: 3860 M⁻¹ min⁻¹
